Source: patent US3953464A, “Cyclic sulphoximides” (Warner-Lambert Company, priority 1973, dated 1976)

Legend:
[1] = LD50 (acute toxicity, i.g.); conditions: in vivo, po, species not given
Guinea pig cough = Guinea pig cough (Antitussive); assay type: in vivo; conditions: Example 8 250 mg/kg equivalent to 150 mg/kg codeine
Shay Rat = assay: antisecretory activity (Shay Rat); assay type: in vivo; conditions: i.g.
[2] = antiphlogistic (anti-inflammatory) activity; assay type: in vivo
analgesic activity = assay type: in vivo; conditions: dose not given

| SMILES | LD50 [1] | Activity: Guinea pig cough (Antitussive), equivalent dose (Guinea pig cough) | further results |
| --- | --- | --- | --- |
| CS1(=O)=NC(=NC(=O)c2ccccc2O)c2ccccc21 (stereo not shown) [Example 8, 3-(Salicyloylimino)-1-methyl-3H-1,2-benzisothiazole-1-oxide] | 1600 mg/kg | 250 mg/kg |  |
| CC(C)C(=O)N=C1N=S(=O)(c2ccccc2)c2ccccc21 (stereo not shown) [Example 7, 3-(Isobutyrylimino)-1-phenyl-3H-1,2-benzisothiazole-1-oxide] | 600 mg/kg |  | Activity: antisecretory (dose) (Shay Rat): 100 mg/kg |
| CCOC(=O)N=C1N=S(=O)(c2ccccc2)c2ccccc21 (stereo not shown) [Example 12, 3-(Ethoxycarbonylimino)-1-phenyl-3H-1,2-benzisothiazole-1-oxide] | 1600 mg/kg |  | Activity: antiphlogistic (dose) ([2]; dose at which antiphlogistic activity is stated, route and species not given): 250 mg/kg |
| CCC(=O)N=C1N=S(=O)(c2ccccc2)c2ccccc21 (stereo not shown) [Example 6, 3-(Propionylimino)-1-phenyl-3H-1,2-benzisothiazole-1-oxide] | 1600 mg/kg |  | Activity: antiphlogistic / anti-inflammatory (in words) ([2]; dose not given): Antiphlogistic; Activity: analgesic (in words) (analgesic activity): analgesic |
| COc1ccc2c3c1O[C@H]1[C@@H](O)C=C[C@H]4[C@@H](C2)N(C)CC[C@@]341 [codeine, reference compound] |  | 150 mg/kg |  |
